In ChEMBL document CHEMBL4651402, “Screening of ~5500 FDA-approved drugs and clinical candidates for anti-SARS-CoV-2 activity” (2021):

Tested on: SARS-CoV-2
Assay: microbe, parasite or virus in culture
Details: Severe acute respiratory syndrome coronavirus 2, Vero C1008, 48 h

SMILES	IC50 [µM]	IC50 (read-out: pIC50 (converted)) [µM]
CO[C@H]1/C=C\O[C@@]2(C)Oc3c(C)c(O)c4c(O)c(c(/C=N/N5CCN(C6CCCC6)CC5)c(O)c4c3C2=O)NC(=O)/C(C)=C\C=C/[C@H](C)[C@H](O)[C@@H](C)[C@@H](O)[C@@H](C)[C@H](OC(C)=O)[C@@H]1C	> 20	> 20
COc1ccc(CC2c3cc(OC)c(OC)cc3CC[N+]2(C)CCC(=O)OCCCCCOC(=O)CC[N+]2(C)CCc3cc(OC)c(OC)cc3C2Cc2ccc(OC)c(OC)c2)cc1OC (centres undefined)	> 20	> 20
Cc1nccc2c1[nH]c1cc(O)ccc12	> 20	> 20
CC(=O)N[C@@H](CC(=O)N[C@H](CCC(=O)O)C(=O)O)C(=O)O	> 20	> 20
Cc1c(O)c(=O)n(-c2ccccc2)n1C	> 20	> 20
OC(CCN1CCCCC1)(c1ccccc1)C1C[C@@H]2C=C[C@H]1C2 (some centres undefined)	> 20	> 20
CC(CNC(=O)c1cccnc1)NC(=O)c1cccnc1 (centres undefined)	> 20	> 20
CC12CCC(C(=O)N(CCCCN3CCN(c4ccccn4)CC3)C1=O)C2(C)C (centres undefined)	> 20	> 20
CC1(C)OC2CC(=O)OCC23C1CC(=O)C1(C)C3CCC2(C)C(c3ccoc3)OC(=O)C3OC321 (centres undefined)	> 20	> 20
C=CCC(N)c1ccccc1-c1noc2ccccc12 (centres undefined)	> 20	> 20
CC(C)(CO)C(O)C(=O)NCCCC(=O)O (centres undefined)	> 20	> 20
CC(=O)C[C@@H](c1ccccc1)c1c(O)c2ccccc2oc1=O	> 20	> 20
O=C(O)c1ccc(NC2OC(CO)C(O)C(O)C2O)cc1 (centres undefined)	> 20	> 20
CC(C)[N@+]1(C)C2CC[C@H]1C[C@@H](OC(=O)C(CO)c1ccccc1)C2 (some centres undefined)	> 20	> 20
CCC12CCN(CC3CCC3)[C@@H](Cc3ccc(O)cc31)C2(C)C	> 20	> 20
C=C[C@@](C)(O)CC[C@H]1C(=C)CCC2[C@@](C)(CO)CCC[C@@]21C (some centres undefined)	> 20	> 20
O=C(O)c1cc(NC(=O)[C@@H](Cc2ccccc2F)NC(=O)c2cc3[nH]cnc3cc2C(=O)NCC2CCCCCC2)cc(C(=O)O)c1	> 20	> 20
O=[N+]([O-])/C(Br)=C\c1ccc(Br)o1	> 20	> 20
CC[N@@+]1(C)[C@@H]2CC[C@H]1C[C@@H](OC(=O)[C@]1(c3ccccc3)CC[C@H](C(=O)O[C@H]3C[C@H]4CC[C@@H](C3)[N@+]4(C)CC)c3ccccc31)C2	> 20	> 20
NCCC(O)C(=O)N[C@@H]1C[C@H](N)[C@@H](OC2O[C@H](CN)[C@@H](O)[C@H](O)[C@H]2N)[C@H](OC2O[C@H](CO)C(O)[C@H]2O)[C@H]1O (some centres undefined)	> 20	> 20
C=C1[C@@H]2CC[C@H]3[C@]4(C)C[C@H](O[C@H]5O[C@H](CO)[C@@H](OS(=O)(=O)O)[C@H](OS(=O)(=O)O)[C@H]5OC(=O)CC(C)C)C[C@@H](C(=O)O)[C@H]4CC[C@]3(C2)[C@H]1O	> 20	> 20
CN1CC[C@]23c4c5ccc(O)c4O[C@H]2C(=O)C=C[C@@]3(O)C1C5	> 20	> 20
CCN1C[C@]2(COC)CC[C@H](OC)[C@]34[C@@H]5C[C@H]6[C@H](OC)[C@@H]5[C@@]5(C[C@@H]6OC)OCO[C@@]5([C@H]13)[C@@H](O)[C@H]24	> 20	> 20
Cc1ccc([C@H]2O[C@H](CO)[C@@H](O)[C@H](O)[C@H]2O)cc1Cc1ccc(-c2ccc(F)cc2)s1	> 20	> 20
CC(=O)N[C@H]1C[C@H]2CC[C@@H](C1)N2Cc1ccc(Oc2nc3ncccc3s2)cc1	> 20	> 20
CCC1(C2OC(C3OC(O)(CO)C(C)CC3C)CC2C)CCC(C2(C)CCC3(CC(O)C(C)C(C(C)C(OC)C(C)C(=O)O)O3)O2)O1 (centres undefined)	> 10	> 10
N[C@@H](Cc1ccc(N(CCCl)CCCl)cc1)C(=O)O	> 20	> 20
